What was measured:
Na^+—K^+ ATPase [1] = assay: Na+-K+ ATPase activity of rat brain cortex plasma membrane (Pi liberated from ATP hydrolysis); type: biochemical; settings: for Na+-K+ ATPase activity (free Pi), MLB compared with ouabain: FIG. 2, various MLB or ouabain concentrations
From the text: (§1) First, Male Sprague-Dawley (NarII: SD) rats (3-month-old) were purchased from National Laboratory Animal Center (Nankang, Taipei) and raised under specific pathogen-free conditions. Animals were provided with rat chow (Rodent Laboratory Chow 5001, Purina, Mo.) and tap water throughout the studies. The rats received humane care in accordance with the guidelines of a guidebook for the care and use of laboratory animals. The animals were sacrificed by decapitation, and the brain and heart organs of the rats were removed immediately after complete exsanguination.
Next, the plasma membrane was isolated from the rat brain and heart at 4° C. The brain and heart homogenate were prepared respectively with homogenized plasma membrane in 10-20 volumes of […] sucrose solution containing 5.0 mM 4-(2-hydroxyethyl)-1-piperazineethanesulfonic acid (HEPES) and 1.0 mM EDTA, pH7.5. Then, the brain or heart homogenate was centrifuged at 1000×g for 10 min, and kept the resultant supernatant for further centrifuge at 17000×g for 30 min to obtain a crude plasma membrane fraction.
Then, the fraction was washed and suspended twice in 0.32 M sucrose HEPES-buffer, which was subjected to a discontinuous sucrose density gradient consisting of successive layers of […], and centrifuged at 63000×g for 1 hour. The plasma membrane was collected at the interface between […] sucrose to be further suspended in 0.32 M sucrose solution for enzyme assays within 2 hours.
Na^+—K^+ ATPase activity was determined by measuring the amount of inorganic phosphate (Pi) liberated from ATP hydrolysis.
First, commercial Na^+—K^+ ATPase from porcine cerebral cortex (Sigma, 0.3 units/mg) or a purified plasma membrane fraction incorporated into a reaction mixture of 1 ml containing 3 mM ATP, 5 mM MgCl2, 80 mM NaCl, 20 mM KCl, and 40 mM Tris-HCl, pH7.4, was prepared. The enzymatic reaction was terminated 15 min after Na^+—K^+ ATPase incorporation by adding 200 μl of 30% (WN) trichloroacetic acid.
After centrifugation at 6000 rpm for 15 min, supernatant of 500 μl measured the inorganic phosphate using spectrophotometric methods. Enzyme activity was expressed as μmol Pi liberated from ATP by 1 mg of Na^+—K^+ ATPase during 1 hour. Protein content was quantified using a Bradford protein assay kit (Sigma). For the observation of inhibitory effects on Na^+—K^+ ATPase activity, ouabain or MLB of various concentrations was incubated with commercial Na^+—K^+ ATPase or the purified plasma membrane fraction at 37° C. for 10 min prior to incorporation into the reaction mixture.

Na^+—K^+ ATPase [2] = assay: Na+-K+ ATPase activity of rat myocardium (cardiac) cell membrane (Pi liberated from ATP hydrolysis); type: biochemical; settings: FIG. 5, various MLB concentrations
From the text: as §1
Next, the plasma membrane was isolated from the rat brain and heart at 4° C. The brain and heart homogenate were prepared respectively with homogenized plasma membrane in 10-20 volumes of […] sucrose solution containing 5.0 mM 4-(2-hydroxyethyl)-1-piperazineethanesulfonic acid (HEPES) and 1.0 mM EDTA, pH7.5. […]
Na^+—K^+ ATPase activity was determined by measuring the amount of inorganic phosphate (Pi) liberated from ATP hydrolysis. […]
After centrifugation at 6000 rpm for 15 min, supernatant of 500 μl measured the inorganic phosphate using spectrophotometric methods. Enzyme activity was expressed as μmol Pi liberated from ATP by 1 mg of Na^+—K^+ ATPase during 1 hour. Protein content was quantified using a Bradford protein assay kit (Sigma). […]

[3] = system: cerebral hypoxia caused by sodium nitrite; assay: Rat survival test after sodium nitrite (cerebral hypoxia); type: in vivo; settings: FIG. 6, sodium nitrite 225 mg/kg
Description: Sodium nitrite will trigger the oxyhemoglobin converts into methemoglobin to cause the hypoxia and cell infract.
3-4 week old rats (about 20˜22 g) were randomly divided into three sample groups and one control group, and each group has 5 rats. […] After feeding for 7 days, one hour later of the final feeding, each rat was injected with sodium nitrite (225 mg/kg). Then count time on the spot to record the survival time of rats.

[4] = system: cerebral infarct after ischemia-reperfusion; assay: Focal cerebral ischemia-reperfusion (CCA/MCA occlusion) infarct test in gerbils; type: in vivo, gerbil; settings: for cell infarct volume vs control: FIG. 7; for cell infarct size vs control: FIG. 8

Row | Structure (SMILES) | Na+-K+ ATPase activity (inorganic phosphate liberated from ATP hydrolysis) with increasing concentration (Na^+—K^+ ATPase [1]; FIG. 1, rat brain cortex, various MLB concentrations, 37° C. 10 min preincubation) | Na+-K+ ATPase activity (free Pi), MLB compared with ouabain (Na^+—K^+ ATPase [1]; rat brain cortex) | Na+-K+ ATPase activity (free Pi) of brain cortex cell membrane (Na^+—K^+ ATPase [1]; FIG. 4, rat brain cortex cell membrane, various MLB concentrations) | Na+-K+ ATPase activity (free Pi) of cardiac cell membrane (Na^+—K^+ ATPase [2]) | survival rate vs control after sodium nitrite ([3]; MLB 3 mg/Kg for 7 days) | survival rate vs control after sodium nitrite ([3]; MLB 9 mg/Kg for 7 days) | survival rate vs control after sodium nitrite ([3]; MLB 18 mg/Kg for 7 days) | cell infarct volume vs control ([4]; MLB 1.5 mg/Kg intraperitoneally 30 min before reperfusion) | cell infarct volume vs control ([4]; MLB 3 mg/Kg intraperitoneally 30 min before reperfusion) | cell infarct size vs control ([4]; MLB 0.3 mg/Kg forced oral fed 30 min after reperfusion) | cell infarct size vs control ([4]; MLB 3 mg/Kg forced oral fed 30 min after reperfusion)
1 | O=C(/C=C/c1ccc(O)c2c1[C@H](C(=O)O[C@H](Cc1ccc(O)c(O)c1)C(=O)[O-])[C@@H](c1ccc(O)c(O)c1)O2)O[C@H](Cc1ccc(O)c(O)c1)C(=O)[O-].[Mg+2] [MLB, magnesium lithospermate B] | the measured free inorganic phosphate (Pi) decreases with increased MLB concentration | the inhibitory behavior of MLB is consistent with the ouabain | the MLB is able to inhibit the Na^+—K^+ ATPase activity of the cortex cell membrane | MLB is able to inhibit the Na^+—K^+ ATPase activity of cardiac cell membranes | significant (p<0.05) increase (two folds) | significant (p<0.05) different from the control group | significant (p<0.05) different from the control group | effective repression of cell infarct | significant (p<0.01) difference from the control group | effective repression of cell infarct | significant (p<0.01) difference from the control group
2 | C[C@@H]1O[C@@H](O[C@H]2C[C@@H](O)[C@]3(CO)[C@H]4[C@H](O)C[C@]5(C)[C@@H](C6=CC(=O)OC6)CC[C@]5(O)[C@@H]4CC[C@]3(O)C2)[C@H](O)[C@H](O)[C@H]1O [ouabain, reference compound] | – | the amount of free inorganic phosphate (Pi) is dependent on the raised inhibitor (MLB or ouabain) dosage | – | – | – | – | – | – | – | – | –
